Results on six compounds are retold here after US4681887A, “Pharmaceutical compositions with a neuroleptic action and process for preparing same” (Richter Gedeon Vegyeszeti Gyar Rt., priority 1985, dated 1987).

One test deals with T1, D-2 receptors (Rattus norvegicus, UniProt P61169).
T1 construct: Hannover Wistar rats were decapitated and the striatum from their cortex was prepared; from tissue; host or cells: striatum membranes of Hannover Wistar rats
Description: D-2 receptor binding (3H-spiroperidol, rat striatum). On the set-up: species or system Hannover Wistar rats. The conditions noted are these: for D-2/α1 Selectivity ratio: ratio of IC50 D-2 to IC50 α1. The procedure: Hannover Wistar rats were decapitated and the striatum from their cortex was prepared. The striata were homogenized in a 10-fold volume of a cold buffer solution (50 mmoles of TRIS HCl, 120 mmoles of NaCl, 2 mmoles of KCl, 1 mmoles of MgCl2 and 5 mmoles of CaCl2, at pH 7.4) and centrifuged at 40000 g for 15 minutes. The thus-obtained sediment was suspended in the buffer in a concentration of 100 ml/g (in a protein concentration of 0.7 to 0.8 mg/ml).
After an incubation at 37° C. for 15 minutes, the samples were filtered through a Whatman GF/B filter and washed 2 times with 5 ml of buffer solution each.
For the determination of the non-specific binding, 1 μmole of (+)-butaclamol was used.
(§1) On using both above-mentioned receptor binding methods, a scintillation solution was applied onto the filter paper in the cuvet and the isotopic radioactivity was measured on the next day.

Test [1] relates to hypermotility induced by L-Dopa. Description: Inhibition of the hypermotility induced by L-Dopa. The test is classed as in vivo, CFLP mice. Conditions: mice, 30 mg/kg p.o., nialamide 40 mg/kg and L-Dopa 100 mg/kg i.p., difference from control. The procedure:
(§2) The neuroleptic effect of the compounds was shown by investigations on the central nervous system of Hannover Wistar rats and CFLP mice. The compounds to be tested were orally administered in a dose of 5 ml/kg of body-weight to rats or in a dose of 10 ml/kg of body-weight to mice, respectively at 60 minutes before beginning the experiment.
(§3) The compounds to be tested were suspended in TWEEN 80 and diluted to the desired concentration by adding physiological saline solution.
(§4) The results are expressed either as percentages, or ED50 values calculated by using the probit analysis are given together with the 95% fiducial (confidential) limits (J. T. Litchfield and F. Wilcoxon: J. Pharmacol. 96, 99 (1949)).
The method of N. P. Plotnikoff et al. ("The Thyroid Axis, Drugs and Behavior", Raven Press, N.Y., pp. 103-113 (1974)) was used for this study.
Male mice (n=15) weighing 18 to 21 g were intraperitoneally treated with 40 mg/kg of nialamide and after 60 minutes, the substances to be tested were administered in a dose of 30 mg/kg. Thirty minutes later, 100 mg/kg of L-Dopa were intraperitoneally administered. The locomotor activity of the animals was measured by using an LKB Animex DSE motimeter in each 30th minute for 2 hours. The results are given as the percentage of the difference from the control.

The target of another test is α1-adrenergic receptor. Description: α1-adrenergic receptor binding (3H-prazosine, rat cortex). Details: species or system Hannover Wistar rats. The conditions noted are these: for IC50: 3H-prazosine, rat cortex, 23° C., 30 minutes; for side-effect on the α1 receptors relative to chloropromazine: from IC50 on α1 receptors. The procedure: Hannover Wistar rats were decapitated, their cortex were prepared and homogenized in a 20-fold volume of a buffer solution (50 mmoles of TRIS HCl, at pH 8). The membrane was centrifuged at 45000 g twice for 15 minutes and then suspended in the buffer in a concentration of 30 ml/g (in a protein concentration of 1.7 to 1.8 mg/ml).
After an incubation at 23° C. for 30 minutes, the samples were filtered through a Whatman GF/B filter and washed 4 times with 4 ml of buffer solution each.
For the determination of the non-specific binding, 10 μmoles of phentolamine were used.
as §1

In test [2] the test system is conditioned avoidance response. Description: Inhibition of the conditioned avoidance response (CAR inhibition). The conditions noted are these: Rattus norvegicus, po, 1 h; rats, p.o., 60 minutes before experiment. The test is classed as in vivo, Hannover Wistar rats. The procedure: as §2, §3, §4
Male rats weighing 140 to 160 g were conditioned for 10 days in an automated six-channel shuttle box (D. Bovet et. al.: Neuropsychopharmacology, Vol. 2., p. 142 Elsevier Publishing House, Amsterdam, 1961).
Each one session consisted of 6 cycles; the time of a partial cycle was: 15 seconds for intersignal time, 15 seconds for light stimulus, 10 seconds for light stimulus and footshock (0.8 mA). […]

The subject of another test is catalepsy. Description: Investigation of the cataleptogenic effect. The test is classed as in vivo, Hannover Wistar rats. The conditions noted are these: Rattus norvegicus, po; rats, observed hourly for 5 hours. The procedure:
as §2, §3, §4
The method of G. Stille and H. Launer Arzneim.-forsch. 21, 252 (1971) was used for this study.
Male rats weighing 90 to 110 g (n=5) were treated with different doses of the compounds to be tested, then the number of the animals showing catalepsy was hourly observed for 5 hours.

In another test the test system is apomorphine hypothermia. Description: Investigation of the apomorphine hypothermia-reverting effect. Conditions: rats, 10 mg/kg p.o., apomorphine 5 mg/kg i.p. The class given is in vivo, Hannover Wistar rats. The procedure:
as §2, §3, §4
The method of A. Barnett et al. (Arch. Int. Pharmacodyn. Ther. 198, 242 (1972)) was used for this study.
The rectal temperature of rats (n=5) was determined by using an Ellab thermometer (E3) before administering the substances to be tested in a dose of 10 mg/kg. Thereafter, 5 mg/kg of apomorphine were intraperitoneally given and the temperature of the animals was hourly registered for 3 hours.

For a further test, the system named is asphyxial anoxia. Description: Investigation of the asphyxial anoxia. The class given is in vivo, CFLP mice. Conditions: Mus musculus, po, 1 h; mice, survival time longer by 30% than control counted as protected. The procedure:
as §2, §3, §4
The method of C. Caillard et al. (Life Sci. 16, 1607 (1975)) was used for this study.
Mice (n=5) of both sexes weighing 22 to 24 g were starved for 16 hours, then treated with 50 mg/kg dose of the substances to be tested. After 60 minutes, the animals were placed in tightly closed glass bottles of 100 ml volume and the survival time was registered.

The test system of test [3] is amphetamine group toxicity. Description: Investigation of the amphetamine group toxicity. The test is classed as in vivo, CFLP mice. The conditions noted are these: d-amphetamine 25 mg/kg i.p., 24 hours. The procedure:
as §2, §3, §4
The method of C. D. Proctor et al. (Arch. Int. Pharmacodyn. Ther. 163, 74 (1966)) was used for this study.
The examination was carried out on mice of both sexes weighing 22 to 27 g (n=5). At the […], d-amphetamine in a dose of 25 mg/kg was intraperitoneally given to the animals tightly closed together (25 cm^2 /mouse) and the percentage of the perished animals was registered after 24 hours.

A further test deals with central dopaminergic. The conditions noted are these: Acta Pharm. Suec. 1983, 111-119; cited from earlier work.

T1 sequence (P61169 whole entry): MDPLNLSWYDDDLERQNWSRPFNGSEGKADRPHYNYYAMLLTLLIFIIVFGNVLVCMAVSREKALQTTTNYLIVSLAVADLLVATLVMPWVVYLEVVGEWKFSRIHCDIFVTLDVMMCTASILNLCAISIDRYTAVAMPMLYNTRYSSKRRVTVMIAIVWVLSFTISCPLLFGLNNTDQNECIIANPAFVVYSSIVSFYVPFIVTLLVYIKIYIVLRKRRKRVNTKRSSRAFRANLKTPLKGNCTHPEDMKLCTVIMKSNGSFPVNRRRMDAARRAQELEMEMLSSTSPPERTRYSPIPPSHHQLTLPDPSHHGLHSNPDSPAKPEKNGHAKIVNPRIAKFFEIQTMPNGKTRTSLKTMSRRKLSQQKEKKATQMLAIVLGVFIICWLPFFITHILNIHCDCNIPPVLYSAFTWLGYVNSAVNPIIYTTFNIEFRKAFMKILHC

As to `CN1C[C@H](CO)C=C2c3cccc4[nH]c(Br)c(c34)C[C@H]21.O=C(O)/C=C\C(=O)O` [2-Bromolysergol maleate], the concentration for half-maximal inhibition (IC50) amounted to 76.5 nM at D-2 receptors and 24.1 nM on α1-adrenergic receptor. Moreover, the “D-2/α1 Selectivity ratio” value on D-2 receptors turned out to be 3.2. The “L-Dopa induced hypermot. inhibition % (60 min.)” value in test [1] is listed as -60%. For the same compound, the “L-Dopa induced hypermot. inhibition % (120 min.)” value in test [1] was -65%. For the same compound, the 50% effective dose (ED50) in test [2] was determined as 2.7 mg/kg; with catalepsy it was 10.8 mg/kg; in the test on asphyxial anoxia, 35.6 mg/kg. The “Apomorphine hypothermia, difference of temperature change vs apomorphine (60 min.)” value in the test with apomorphine hypothermia is “+1.9 °C”. Moreover, in the test with apomorphine hypothermia, the “Apomorphine hypothermia, difference of temperature change vs apomorphine (120 min.)” value is “+2.4 °C”. In addition, the “Amphetamine group tox., mice died (footnote *)” value in [3] (20 mg/kg p.o.) came to 10%.
Compound `CCN(CC)C(=O)NC1C=C2c3cccc4[nH]c(Br)c(c34)CC2N(C)C1` (stereo not drawn) [2-Bromolysuride, reference compound] gave an ED50 in the test with catalepsy of 3.3 mg/kg.
As for `CN1C[C@H](CO)C=C2c3cccc4[nH]c(Cl)c(c34)C[C@H]21` [2-chlorolysergol], in the test on central dopaminergic, the “central dopaminergic agonist activity” value was “inactive”. Moreover, the “D-2/α1 selectivity ratio relative to chloropromazine” value at D-2 receptors is “ten times lower”. Moreover, at D-2 receptors (from IC50 on D-2 receptors), the “dopaminergic (D-2) activity relative to chloropromazine” value was “three times as high”. Also, in the test with α1-adrenergic receptor, the “side-effect on the α1 receptors relative to chloropromazine” value is on record as “one-third”.
For `CN1C[C@H](CO)C=C2c3cccc4[nH]c(Br)c(c34)C[C@H]21` [2-bromolysergol], in the test with central dopaminergic, the “central dopaminergic agonist activity” value was “inactive”. The “side-effect on the α1 receptors relative to chloropromazine” value in the test on α1-adrenergic receptor is “somewhat lower”.
With `CN(C)CCCN1c2ccccc2Sc2ccc(Cl)cc21` [Chloropromazine, reference compound], the IC50 on α1-adrenergic receptor was determined as 15.8 nM.
`CN1C[C@H](CO)C=C2c3cccc4[nH]c(Cl)c(c34)C[C@H]21.O=C(O)/C=C\C(=O)O` [2-Chlorolysergol maleate]: the figures for the IC50 at D-2 receptors and on α1-adrenergic receptor were 5.3 nM and 45.4 nM, respectively. Moreover, the “D-2/α1 Selectivity ratio” value on D-2 receptors is listed as 0.12. The “L-Dopa induced hypermot. inhibition % (60 min.)” value in test [1] was -47%. Further, in test [1], the “L-Dopa induced hypermot. inhibition % (120 min.)” value is on record as -50%. Besides, the ED50 in test [2] amounted to 3.4 mg/kg; with catalepsy, 13.6 mg/kg; with asphyxial anoxia, 39.8 mg/kg; in test [3] (Mus musculus, po, mice, p.o., read-out: Amphetamine group tox. ED50), 28.9 mg/kg. Further, the “Apomorphine hypothermia, difference of temperature change vs apomorphine (60 min.)” value in the test with apomorphine hypothermia is “+0.9 °C”. In the test on apomorphine hypothermia, the “Apomorphine hypothermia, difference of temperature change vs apomorphine (120 min.)” value was “+1.1 °C”.
